Data reported in patent publication US6420367B1, “Pyrimidine derivatives exhibiting antitumor activity” (Shionogo & Co., Ltd., priority 1998, dated 2002).
In brackets after ≈: the same amount, converted by molar mass.

Experiments:
[1] = test system: DT-R cells (pRRE3-luc-transfected v-ki-ras-transformed NIH3T3 cells); signal derived from Ras oncogene products; assay: Inhibitory effect against cellular signaling derived from Ras oncogene products: luciferase reporter, dissociation of DT-R from DT-C activity (MAC); type: cell-based, mouse; settings: minimal tested concentration at which luciferase activities of DT-C cells and DT-R cells dissociated
From the text: Test Example 1 Inhibitory Effect Against Cellular Signaling Derived From Ras Oncogene Products
1) Establishment of Cell Lines Used in Assay
Based on the reporter plasmid (pGV-P (Toyo Ink, Japan)), in which luciferase gene was ligated to SV40-derived minimal promoter, we constructed a plasmid designated pRRE3-luc by inserting 3 copies of chemically synthesized oligonucleotides (Sequence: CAGGATATGACTCT, derived from mouse NVL-3 (M. A. Reddy et al.(1992)Mol. Endocrinol., 6, 1051)) into upstream of the promoter. v-ki-ras-transformed NIH3T3 cells (DT cells, provided by Dr. Makoto Noda (Kyoto Univ., School of medicine)) were transfected with this plasmid by liposome-mediated transfection and transfected cell lines stably incorporated and maintained each plasmid were obtained. We named pGV-P and pRRE3-transfected cell line as DT-C and DT-R, respectively and used in the assay described below.
2) Preparation of Samples
i) All the cell lines were cultured in Dulbecco's Modified Essential Medium (DMEM: 10% Fetal Calf Serum(FCS: Hyclone, USA)) including […] kanamycin (Meiji Seika, Japan) in humidified incubator under condition of 5% CO2 at 37° C.
ii) DT-C and DT-R cells were seeded at 2500 cells/well into flat-bottom 96 well multiplate (Sumitomo bakelite) and incubated for 24 hours.
iii) Test compounds were prepared as 1 mg/ml DMSO solution.
iv) The solution of test compounds were added to the culture. Tested compounds are used at the concentration from […] to 0.51 ng/ml with by 3-fold dilution.
v) After 24 hours, the culture supernatant was completely aspirated and […] of cell-lysing solution (PGC-50 (Toyo Ink, Japan)) was added before cells were dried up. In order to the cells were lysed completely, multiwell plates were left at room temperature for 10 to 30 min. The plates were wrapped up and stored at −20° C. till the day of measurement.
3) Measurement of Samples
i) Melt the samples by putting 96 well multiplate at 37° C. and add 90 μl/well 25 mM Tris (pH 7.5).
ii) Transfer 50 μl of the sample (110 μl) to the 96 well microplate for measurement (Microlite 1 (Dynatech)).
iii) Measure the samples by the luminometer, LUMINOUS CT9000D (Dia-Yatron, Japan). We used Pickagene luminescence kit PGL2000 or LT2.0 (Toyo Ink, Japan) as substrates for luminescence measurement (50 μl/well).
4) Judgment of the Results
i) The luciferase activity of DT-C cells and DT-R cells were plotted in the graph where the relative activity and the compound concentration were expressed as Y-axis and X-axis, respectively. We judged by the degree of dissociation between the activities of DT-C cells and DT-R cells as an index.
ii) Concretely, efficacy of the compound was expressed by two values described below.
a) Among the points of concentration tested, the minimal concentration (Minimal Active Concentration: MAC), at which the activities of DT-C cells and DT-R cells dissociated, was shown as an index of efficacy of the compound.

human colon cancer HT29 = assay: In vitro cell growth inhibition test, MTT assay; type: cell-based; settings: MTT assay 4 days after compound addition
From the text: (§1) Test Example 2 In Vitro Cell Growth Inhibition Test Cells and MTT Assay
(§2) Human squamous lung cancer […], human squamous lung cancer Ma44, human lung adenocarcinoma A549, human colon cancer HT29 and human pancreas cancer PANC-1 were used.

[2] = test system: human lung adenocarcinoma A549; assay: In vitro cell growth inhibition test, MTT assay; type: cell-based; settings: MTT assay 4 days after compound addition
From the text: as §1, §2

[3] = test system: human pancreas cancer PANC-1; assay: In vitro cell growth inhibition test, MTT assay; type: cell-based; settings: MTT assay 4 days after compound addition
From the text: as §1, §2

[4] = test system: human squamous lung cancer Ma44; assay: In vitro cell growth inhibition test, MTT assay; type: cell-based; settings: MTT assay 4 days after compound addition
From the text: as §1, §2

[5] = test system: human squamous lung cancer RERF-RC-AI; assay: In vitro cell growth inhibition test, MTT assay; type: cell-based; settings: MTT assay 4 days after compound addition
From the text: as §1, §2

IC50, HT29 (human colon cancer HT29) [µg/mL]	IC50, A549 [2] [µg/mL]	IC50, PANC-1 [3] [µg/mL]	IC50, Ma44 [4] [µg/mL]	IC50, RERF-LC-AI [5] [µg/mL]	Compound	MAC (Minimal Active Concentration) [1] [µg/mL]
0.0063 (≈ 0.0142 µM)	0.014 (≈ 0.0316 µM)	0.0018 (≈ 0.00407 µM)	0.0026 (≈ 0.00588 µM)	0.002 (≈ 0.00452 µM)	CCCNC(=Nc1ncncc1CSc1nnc(-c2ccc([N+](=O)[O-])cc2)o1)NCC [Compound A-179]	0.0137
0.032 (≈ 0.0723 µM)	0.051 (≈ 0.115 µM)	0.021 (≈ 0.0475 µM)	0.085 (≈ 0.192 µM)	0.016 (≈ 0.0362 µM)	CCNC(=Nc1nc(C)ncc1CSc1nnc(-c2ccc(N)cc2OC)o1)NCC [Compound A-141]	0.0412
0.033 (≈ 0.0749 µM)	0.056 (≈ 0.127 µM)	0.028 (≈ 0.0636 µM)	0.049 (≈ 0.111 µM)	0.016 (≈ 0.0363 µM)	Cc1ncc(CSc2nnc(-c3ccc(N)cc3)o2)c(N=C(NC(C)C)NC(C)C)n1 [Compound A-166]	0.123
0.0061 (≈ 0.0143 µM)	0.012 (≈ 0.0281 µM)	0.006 (≈ 0.0141 µM)	0.025 (≈ 0.0586 µM)	0.0032 (≈ 0.0075 µM)	CCCNC(=Nc1nc(C)ncc1CSc1nnc(-c2ccc(N)cc2)o1)NCC [Compound A-167]	0.0137
0.0061 (≈ 0.0134 µM)	0.0087 (≈ 0.0191 µM)	0.0057 (≈ 0.0125 µM)	0.0065 (≈ 0.0143 µM)	0.0051 (≈ 0.0112 µM)	C=CCNC(=Nc1nc(C)ncc1CSc1nnc(-c2ccc([N+](=O)[O-])cc2)o1)NCC [Compound A-181]	0.0137
0.071 (≈ 0.177 µM)	0.57 (≈ 1.42 µM)	0.17 (≈ 0.425 µM)	0.38 (≈ 0.949 µM)	0.082 (≈ 0.205 µM)	CCNC(=Nc1ncncc1CSc1nnc(-c2cc[n+]([O-])cc2)o1)NCC [Compound D-42]	–
0.01 (≈ 0.0219 µM)	0.052 (≈ 0.114 µM)	0.017 (≈ 0.0372 µM)	0.016 (≈ 0.035 µM)	0.012 (≈ 0.0263 µM)	CCCNC(=Nc1nc(C)ncc1CSc1nnc(-c2ccc([N+](=O)[O-])cc2)o1)NCC [Compound A-135]	0.0137
0.1 (≈ 0.23 µM)	0.27 (≈ 0.621 µM)	0.1 (≈ 0.23 µM)	0.2 (≈ 0.46 µM)	0.21 (≈ 0.483 µM)	CCNC(=Nc1ncncc1CSc1nnc(-c2csc([N+](=O)[O-])c2)o1)NCC [Compound D-43]	–

Second part, the molecule before the results:

Compound	IC50, HT29 (human colon cancer HT29) [µg/mL]	IC50, A549 [2] [µg/mL]	IC50, PANC-1 [3] [µg/mL]	IC50, Ma44 [4] [µg/mL]	IC50, RERF-LC-AI [5] [µg/mL]	MAC (Minimal Active Concentration) [1] [µg/mL]
CCNC(=Nc1nc(C)ncc1CSc1nnc(-c2ccccc2)o1)NCC [Compound A-107]	0.036 (≈ 0.0906 µM)	0.065 (≈ 0.164 µM)	0.052 (≈ 0.131 µM)	0.055 (≈ 0.138 µM)	–	0.370
CCNC(=Nc1nc(C)ncc1CSc1nnc(-c2cc(F)c(F)cc2N)o1)NCC [Compound A-52]	–	0.049 (≈ 0.109 µM)	0.024 (≈ 0.0535 µM)	0.11 (≈ 0.245 µM)	–	0.123
Cc1ncc(CSc2nnc(-c3ccc([N+](=O)[O-])cc3)o2)c(N=C(NCC(C)C)NCC(C)C)n1 [Compound A-129]	0.3 (≈ 0.602 µM)	0.43 (≈ 0.862 µM)	0.21 (≈ 0.421 µM)	0.33 (≈ 0.662 µM)	0.17 (≈ 0.341 µM)	–
CCNC(=Nc1nc(C)ncc1CSc1nnc(-c2ccccc2C)o1)NCC [Compound A-78]	0.021 (≈ 0.051 µM)	0.063 (≈ 0.153 µM)	0.037 (≈ 0.0899 µM)	0.052 (≈ 0.126 µM)	0.017 (≈ 0.0413 µM)	–
CCNC(=Nc1ncncc1CSc1nnc(-c2ccccc2NC(C)=O)o1)NCC [Compound A-57]	–	0.014 (≈ 0.0318 µM)	0.0088 (≈ 0.02 µM)	0.025 (≈ 0.0567 µM)	–	0.0137
